According to patent US12071425B2 (Genentech, Inc., priority 2018, dated 2024):
pIC50: −log10 of the molar value. Counter-ions that a name gives are not always drawn.

Assays:
cells = conditions: high levels of 4μ8C; cited from earlier work
[1] = molecular target: kinase domain of IRE1 alpha (His-tagged kinase dead construct KR, AA G547-L977, D688N) (Homo sapiens (Human), UniProt O75460, D688N); assay: IRE1α TR-FRET competition binding assay; conditions: competition with Kinase Tracer 236, 0.1 μM; one hour at room temperature
Chain of kinase domain of IRE1 alpha (His-tagged kinase dead construct KR, AA G547-L977, D688N) (O75460 547-977 D688N): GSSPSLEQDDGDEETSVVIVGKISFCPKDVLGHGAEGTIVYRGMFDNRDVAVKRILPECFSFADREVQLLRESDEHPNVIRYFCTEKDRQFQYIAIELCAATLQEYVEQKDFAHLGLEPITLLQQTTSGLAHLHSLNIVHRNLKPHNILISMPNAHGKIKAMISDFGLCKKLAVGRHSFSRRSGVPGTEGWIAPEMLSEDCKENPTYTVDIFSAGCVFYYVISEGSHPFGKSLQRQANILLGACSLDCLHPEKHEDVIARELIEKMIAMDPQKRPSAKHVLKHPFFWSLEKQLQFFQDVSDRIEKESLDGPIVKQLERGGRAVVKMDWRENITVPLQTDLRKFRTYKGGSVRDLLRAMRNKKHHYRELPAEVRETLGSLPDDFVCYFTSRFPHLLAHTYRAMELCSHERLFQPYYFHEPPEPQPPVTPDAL
In short: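 Compound displacement of an ATP-site fluorescent tracer (0.1 μM final) measured by TR-FRET after 1 h at room temperature. Protein, a His-tagged D688N kinase/RNase construct from Sf9 cells (0.006 μM final), was pre-bound 1 h at 4° C to Eu anti-His antibody (0.002 μM) in pH 7.5 HEPES buffer.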

Structure (SMILES) | pIC50 [1] | toxicity in cells (cells)
Cc1cc(=O)oc2c(C=O)c(O)ccc12 [Compound 4μ8C] | – | no measurable toxicity
Cc1ccccc1CS(=O)(=O)Nc1c(F)cc(Oc2ncccc2-c2ccnc(N[C@@H]3CNC[C@@H](F)C3)n2)c(F)c1F [Compound 386, 1-o-Tolyl-N-(2,3,6-trifluoro-4-((3-(2-(((3S,5S)-5-fluoropiperidin-3-yl)amino)pyrimidin-4-yl)pyridin-2-yl)oxy)phenyl)methanesulfonamide] | 9.52 | –
COc1ccccc1CS(=O)(=O)Nc1ccc(Oc2ncccc2-c2ccnc(N[C@H]3CCCNC3)n2)c(F)c1F [Compound 380, (S)—N-(2,3-Difluoro-4-((3-(2-(piperidin-3-ylamino)pyrimidin-4-yl)pyridin-2-yl)oxy)phenyl)-1-(2-methoxyphenyl)methanesulfonamide] | 9.05 | –
O=S(=O)(Cc1ccccc1)Nc1c(F)cc(Oc2ncccc2-c2ccnc(CC3CCCNC3)n2)c(F)c1F (single isomer, unassigned) [Compound 199, 1-Phenyl-N-(2,3,6-trifluoro-4-((3-(2-(3-piperidylmethyl)pyrimidin-4-yl)-2-pyridyl)oxy)phenyl)methanesulfonamide] | 6.96 | –
O=S(=O)(Cc1ccc(F)c(Cl)c1)Nc1c(F)cc(Oc2ncccc2-c2ccnc(N[C@@H]3CNC[C@@H](F)C3)n2)c(F)c1F [Compound 366, 1-(3-Chloro-4-fluoro-phenyl)-N-[2,3,6-trifluoro-4-[[3-[2-[[(3S,5S)-5-fluoro-3-piperidyl]amino]pyrimidin-4-yl]-2-pyridyl]oxy]phenyl]methanesulfonamide] | 9.70 | –
O=S(=O)(Cc1ccc(F)cc1)Nc1c(F)cc(Oc2ncccc2-c2ccnc(N[C@@H]3CNCC(CF)C3)n2)c(F)c1F (stereo in doubt) [Compound 316, 1-(4-Fluorophenyl)-N-(2,3,6-trifluoro-4-((3-(2-(((3S,5S)-5-(fluoromethyl)piperidin-3-yl)amino)pyrimidin-4-yl)pyridin-2-yl)oxy)phenyl)methanesulfonamide] | 9.46 | –
O=S(=O)(Nc1ccc(Oc2ncccc2-c2ccnc(N[C@H]3CCCNC3)n2)cc1)c1ccccc1Cl [Compound 134, (S)-2-Chloro-N-(4-((3-(2-(piperidin-3-ylamino)pyrimidin-4-yl)pyridin-2-yl)oxy)phenyl)benzenesulfonamide hydrochloride] | 7.68 | –
CCC(F)(F)CS(=O)(=O)Nc1ccc(Oc2ncccc2-c2ccnc(N[C@H]3CCCNC3)n2)c(F)c1F [Compound 148, (S)-N-(2,3-Difluoro-4-((3-(2-(piperidin-3-ylamino)pyrimidin-4-yl)pyridin-2-yl)oxy)phenyl)-2,2-difluorobutane-1-sulfonamide hydrochloride] | 8.19 | –
O=S(=O)(Cc1ccccc1)Nc1c(F)cc(Oc2ncccc2-c2ccnc(N[C@H]3CNC[C@H](F)C3)n2)c(F)c1F [Compound 193, 1-phenyl-N-(2,3,6-trifluoro-4-((3-(2-(((3R,5R)-5-fluoro-3-piperidyl)amino)pyrimidin-4-yl)-2-pyridyl)oxy)phenyl)methanesulfonamide] | 7.48 | –
CN=S(=O)(Cc1ccccc1)Nc1ccc(Oc2ncccc2-c2ccnc(N[C@H]3CCCNC3)n2)c(F)c1F (stereo partly drawn) [Compound 273, N-(2,3-difluoro-4-((3-(2-(((S)-piperidin-3-yl)amino)pyrimidin-4-yl)pyridin-2-yl)oxy)phenyl)-N′-methyl-1-phenylmethanesulfonimidamide] | 6.39 | –
C[C@@H](c1ccccc1)S(=O)(=O)Nc1c(F)cc(Oc2ncccc2-c2ccnc(N[C@@H]3CNC[C@@H](F)C3)n2)c(F)c1F (single isomer, unassigned) [Compound 387, (*S)-1-Phenyl-N-(2,3,6-trifluoro-4-((3-(2-(((3S,5S)-5-fluoropiperidin-3-yl)amino)pyrimidin-4-yl)pyridin-2-yl)oxy)phenyl)ethane-1-sulfonamide] | 9.70 | –

More lines, main results first:

pIC50 [1] | Structure (SMILES) | toxicity in cells (cells)
6.43 | CCCS(=O)(=O)Nc1ccc(F)c(Oc2ncccc2-c2ccnc(N[C@H]3CCCNC3)n2)c1 [Compound 127, (S)-N-(4-fluoro-3-((3-(2-(piperidin-3-ylamino)pyrimidin-4-yl)pyridin-2-yl)oxy)phenyl)propane-1-sulfonamide] | –
9.11 | CC(F)C1CNCC(Nc2nccc(-c3cccnc3Oc3cc(F)c(NS(=O)(=O)Cc4ccccc4)c(F)c3F)n2)C1 (single isomer, unassigned) [Compound 343, 1-Phenyl-N-(2,3,6-trifluoro-4-((3-(2-((5-(1-fluoroethyl)piperidin-3-yl)amino)pyrimidin-4-yl)pyridin-2-yl)oxy)phenyl)methanesulfonamide hydrochloride] | –
8.42 | Cc1c(Oc2ncccc2-c2ccnc(N[C@H]3CCCNC3)n2)cc(F)c(NS(=O)(=O)Cc2ccccc2)c1F [Compound 154, (S)-N-(2,6-difluoro-3-methyl-4-(3-(2-(piperidin-3-ylamino)pyrimidin-4-yl)pyridin-2-yloxy)phenyl)(phenyl)methanesulfonamide hydrochloride] | –
9.48 | Cc1c(Oc2ncccc2-c2ccnc(N[C@@H]3CNC[C@@](C)(F)C3)n2)cc(F)c(NS(=O)(=O)Cc2ccccc2)c1F [Compound 292, N-(2,6-Difluoro-4-((3-(2-(((3S,5S)-5-fluoro-5-methylpiperidin-3-yl)amino)pyrimidin-4-yl)pyridin-2-yl)oxy)-3-methylphenyl)-1-phenylmethanesulfonamide] | –
6.74 | NCCNc1nccc(-c2cccnc2Oc2ccc(NS(=O)(=O)Cc3ccccc3)c(F)c2F)n1 [Compound 171, N-(4-((3-(2-((2-aminoethyl)amino)pyrimidin-4-yl)pyridin-2-yl)oxy)-2,3-difluorophenyl)-1-phenylmethanesulfonamide] | –
7.25 | O=S(=O)(Cc1ccccc1F)Nc1c(F)cc(Oc2ncccc2-c2ccnc(N[C@@H]3CNC[C@@H](F)C3)n2)c(Cl)c1F [Compound 332, N-(3-Chloro-2,6-difluoro-4-((3-(2-(((3S,5S)-5-fluoropiperidin-3-yl)amino)pyrimidin-4-yl)pyridin-2-yl)oxy)phenyl)-1-(2-fluorophenyl)methanesulfonamide] | –
9.10 | O=S(=O)(CC12CCC(CC1)CC2)Nc1c(F)cc(Oc2ncccc2-c2ccnc(N[C@@H]3CNC[C@@H](F)C3)n2)c(F)c1F [Compound 377, 1-(Bicyclo[2.2.2]octan-1-yl)-N-(2,3,6-trifluoro-4-((3-(2-(((3S,5S)-5-fluoropiperidin-3-yl)amino)pyrimidin-4-yl)pyridin-2-yl)oxy)phenyl)methanesulfonamide] | –
7.37 | CN(C)C1CCC(Nc2nccc(-c3cccnc3Oc3cc(F)c(NS(=O)(=O)Cc4ccccc4)c(F)c3F)n2)CC1F (single isomer, unassigned) [Compound 306, N-(4-((3-(2-((4-(Dimethylamino)-3-fluorocyclohexyl)amino)pyrimidin-4-yl)pyridin-2-yl)oxy)-2,3,6-trifluorophenyl)-1-phenylmethanesulfonamide] | –
7.35 | CCC1CCN(c2ccc(Oc3ncccc3-c3ccnc(N[C@H]4CCCNC4)n3)c(F)c2F)C1=O (single isomer, unassigned) [Compound 248] | –
7.28 | N#Cc1ccc(S(=O)(=O)Nc2ccc(Oc3ncccc3-c3ccnc(N[C@H]4CCCNC4)n3)c(F)c2F)cc1 [Compound 219, (S)-4-cyano-N-(2,3-difluoro-4-((3-(2-(piperidin-3-ylamino)pyrimidin-4-yl)pyridin-2-yl)oxy)phenyl)benzenesulfonamide] | –
7.36 | O=S(=O)(Nc1ccc(Oc2ncccc2-c2ccnc(N[C@H]3CCCNC3)n2)c(F)c1F)c1cccnc1 [Compound 214, (S)-N-(2,3-difluoro-4-((3-(2-(piperidin-3-ylamino)pyrimidin-4-yl)pyridin-2-yl)oxy)phenyl)pyridine-3-sulfonamide] | –
8.11 | O=S(=O)(CC1CCCCC1)Nc1ccc(Oc2ncccc2-c2ccnc(N[C@H]3CCCNC3)n2)c(F)c1F [Compound 145, (S)-1-Cyclohexyl-N-(2,3-difluoro-4-((3-(2-(piperidin-3-ylamino)pyrimidin-4-yl)pyridin-2-yl)oxy)phenyl)methanesulfonamide hydrochloride] | –
8.03 | O=S(=O)(Cc1ccccc1)Nc1ccc(Oc2ncccc2-c2ccnc(NC34CNCC3C4)n2)c(F)c1F (single isomer, unassigned) [Compound 185, N-(4-((3-(2-(3-Azabicyclo[3.1.0]hexan-5-ylamino)pyrimidin-4-yl)-2-pyridyl)oxy)-2,3-difluoro-phenyl)-1-phenyl-methanesulfonamide] | –
8.38 | O=S(=O)(Cc1ccccc1)Nc1ccc(Oc2ncccc2-c2ccnc(N[C@H]3CCCNC3)n2)c(F)c1Cl [Compound 161, (S)—N-(2-Chloro-3-fluoro-4-((3-(2-(piperidin-3-ylamino)pyrimidin-4-yl)pyridin-2-yl)oxy)phenyl)-1-phenylmethanesulfonamide] | –
